According to patent US10294202B2, “Pyrrolidinones as herbicides” (FMC Corporation, priority 2013, dated 2019):

Experiments:
[1] = test system: barnyardgrass; assay: Test C flooded paddy test; type: in vivo, Echinochloa crus-galli; details: Flood
Description: (§1) Plant species in the flooded paddy test consisted of rice (Oryza sativa), sedge, umbrella (small-flower umbrella sedge, Cyperus difformis), ducksalad (Heteranthera limosa), and barnyardgrass (Echinochloa crus-galli) grown to the 2-leaf stage for testing. At time of treatment, test pots were flooded to 3 cm above the soil surface, treated by application of test compounds directly to the paddy water, and then maintained at that water depth for the duration of the test. Treated plants and controls were maintained in a greenhouse for 13 to 15 days, after which time all species were compared to controls and visually evaluated. Plant response ratings, summarized in Table C, are based on a scale of 0 to 100 where 0 is no effect and 100 is complete control. A dash (-) response means no test result.

[2] = test system: wheat; assay: Test A pre-/postemergence herbicide test; type: in vivo, Triticum aestivum; details: for Wheat plant response rating: Preemergence, visual rating on 0 to 100 scale (0 no effect, 100 complete control)
Procedure, shortened: (§2)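 Formulated compound (non-phytotoxic solvent, surfactant) sprayed pre- onto soil of seeded loam/sand pots or post- onto seedlings at 1–2 leaves; ~10 d greenhouse; 0–100 visual control rating versus untreated.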

[3] = test system: morningglory; assay: Test A pre-/postemergence herbicide test; type: in vivo, Ipomoea spp.; details: for Morningglory plant response rating: Preemergence, visual rating on 0 to 100 scale (0 no effect, 100 complete control)
Procedure, shortened: as §2

[4] = test system: rice; assay: Test C flooded paddy test; type: in vivo, Oryza sativa; details: Flood
Description: as §1

[5] = test system: sedge, umbrella; assay: Test C flooded paddy test; type: in vivo, Cyperus difformis; details: Flood
Description: as §1

[6] = test system: pigweed; assay: Test A pre-/postemergence herbicide test; type: in vivo, Amaranthus retroflexus; details: for Pigweed plant response rating: Preemergence, visual rating on 0 to 100 scale (0 no effect, 100 complete control)
Procedure, shortened: as §2

[7] = test system: corn; assay: Test A pre-/postemergence herbicide test; type: in vivo, Zea mays; details: for Corn plant response rating: Preemergence, visual rating on 0 to 100 scale (0 no effect, 100 complete control)
Procedure, shortened: as §2

[8] = test system: ducksalad; assay: Test C flooded paddy test; type: in vivo, Heteranthera limosa; details: Flood
Description: as §1

[9] = test system: velvetleaf; assay: Test A pre-/postemergence herbicide test; type: in vivo, Abutilon theophrasti; details: for Velvetleaf plant response rating: Preemergence, visual rating on 0 to 100 scale (0 no effect, 100 complete control)
Procedure, shortened: as §2

[10] = test system: crabgrass, large; assay: Test A pre-/postemergence herbicide test; type: in vivo, Digitaria sanguinalis; details: for Crabgrass, Large plant response rating: Preemergence, visual rating on 0 to 100 scale (0 no effect, 100 complete control)
Procedure, shortened: as §2

[11] = test system: giant foxtail; assay: Test A pre-/postemergence herbicide test; type: in vivo, Setaria faberii; details: for Foxtail, Giant plant response rating: Preemergence, visual rating on 0 to 100 scale (0 no effect, 100 complete control)
Procedure, shortened: as §2

[12] = test system: barnyardgrass; assay: Test A pre-/postemergence herbicide test; type: in vivo, Echinochloa crus-galli; details: for Barnyardgrass plant response rating: Preemergence, visual rating on 0 to 100 scale (0 no effect, 100 complete control)
Procedure, shortened: as §2

[13] = 31 g ai/ha, scale of 0 to 100 where 0 is no effect and 100 is complete control, 13 to 15 days
[14] = 62 g ai/ha, scale of 0 to 100 where 0 is no effect and 100 is complete control, 13 to 15 days
[15] = 125 g ai/ha, scale of 0 to 100 where 0 is no effect and 100 is complete control, 13 to 15 days
[16] = Postemergence, 125 g ai/ha, 0 to 100 scale, 0 no effect, 100 complete control
[17] = Postemergence, 500 g ai/ha, 0 to 100 scale (0 no effect, 100 complete control)
[18] = preemergence, 500 g ai/ha, 0 to 100 scale
[19] = preemergence, 500 g ai/ha, 0 to 100 scale (0 no effect, 100 complete control)

For `CC1NC(=O)C(C(=O)Nc2ccccc2F)C1c1ccc(F)c(F)c1` (mixture of isomers) [Compound 7], the “Plant response rating, Barnyardgrass” value [1, 13] was 0, the “Plant response rating, Barnyardgrass” value [1, 14] was 0 and the “Plant response rating, Barnyardgrass” value [1, 15] was 0. The “Plant response rating, Barnyardgrass” value ([1]; 250 g ai/ha, scale 0 to 100) was 0, the “Plant response rating, Wheat” value [2, 16] was 0 and the “Plant response rating, Wheat” value [2, 17] was 0. The “Wheat plant response rating” value ([2]; 125 g ai/ha) was 0, the “Plant response rating, Wheat” value [2, 18] was 0 and the “Plant response rating, Morningglory” value [3, 16] was 0. The “Plant response rating, Morningglory” value [3, 17] was 0, the “Morningglory plant response rating” value ([3]; 125 g ai/ha) was 0 and the “Plant response rating, Morningglory” value [3, 18] was 0. For the same compound, the “Plant response rating, Rice” value [4, 13] was 0, the “Plant response rating, Rice” value [4, 14] was 0 and the “Plant response rating, Rice” value [4, 15] was 0. For the same compound, the “Plant response rating, Rice” value ([4]; 250 g ai/ha, scale 0 to 100) was 0, the “Plant response rating, Sedge, Umbrella” value [5, 13] was 0 and the “Plant response rating, Sedge, Umbrella” value [5, 14] was 0. The “Plant response rating, Sedge, Umbrella” value [5, 15] was 0, the “Plant response rating, Sedge, Umbrella” value ([5]; 250 g ai/ha, scale 0 to 100) was 0 and the “Plant response rating, Pigweed” value [6, 16] was 0. The “Plant response rating, Pigweed” value [6, 17] was 0, the “Pigweed plant response rating” value ([6]; 125 g ai/ha) was 0 and the “Plant response rating, Pigweed” value [6, 18] was 0. For the same compound, the “Plant response rating, Corn” value [7, 16] was 0, the “Plant response rating, Corn” value [7, 17] was 0 and the “Corn plant response rating” value ([7]; 125 g ai/ha) was 0. The “Plant response rating, Corn” value [7, 18] was 0, the “Plant response rating, Ducksalad” value [8, 13] was 0 and the “Plant response rating, Ducksalad” value [8, 14] was 0. For the same compound, the “Plant response rating, Ducksalad” value [8, 15] was 0, the “Plant response rating, Ducksalad” value ([8]; 250 g ai/ha, scale 0 to 100) was 0 and the “Plant response rating, Velvetleaf” value [9, 16] was 0. The “Plant response rating, Velvetleaf” value [9, 17] was 0, the “Velvetleaf plant response rating” value ([9]; 125 g ai/ha) was 0 and the “Plant response rating, Velvetleaf” value [9, 18] was 0. The “Plant response rating, Crabgrass, Large” value [10, 16] was 30, the “Plant response rating, Crabgrass, Large” value [10, 17] was 80 and the “Crabgrass, Large plant response rating” value ([10]; 125 g ai/ha) was 80. For the same compound, the “Plant response rating, Crabgrass, Large” value [10, 18] was 90, the “Plant response rating, Foxtail, Giant” value [11, 16] was 0 and the “Plant response rating, Foxtail, Giant” value [11, 17] was 50. For the same compound, the “Foxtail, Giant plant response rating” value ([11]; 125 g ai/ha) was 70, the “Plant response rating, Foxtail, Giant” value [11, 18] was 90 and the “Plant response rating, Barnyardgrass” value [12, 16] was 20. The “Plant response rating, Barnyardgrass” value [12, 17] was 70, the “Barnyardgrass plant response rating” value ([12]; 125 g ai/ha) was 20 and the “Plant response rating, Barnyardgrass” value [12, 19] was 80.

For `CC1NC(=O)C(C(=O)Nc2ccccc2F)C1c1ccc(F)c(F)c1` (mixture of isomers) [Compound 8], the “Plant response rating, Barnyardgrass” value [1, 13] was 0, the “Plant response rating, Barnyardgrass” value [1, 14] was 0 and the “Plant response rating, Barnyardgrass” value [1, 15] was 0. The “Plant response rating, Barnyardgrass” value ([1]; 250 g ai/ha, scale 0 to 100) was 0, the “Plant response rating, Wheat” value [2, 16] was 0 and the “Plant response rating, Wheat” value [2, 17] was 0. The “Wheat plant response rating” value ([2]; 125 g ai/ha) was 0, the “Plant response rating, Wheat” value [2, 18] was 0 and the “Plant response rating, Morningglory” value [3, 16] was 0. For the same compound, the “Plant response rating, Morningglory” value [3, 17] was 0, the “Morningglory plant response rating” value ([3]; 125 g ai/ha) was 0 and the “Plant response rating, Morningglory” value [3, 18] was 0. For the same compound, the “Plant response rating, Rice” value [4, 13] was 0, the “Plant response rating, Rice” value [4, 14] was 0 and the “Plant response rating, Rice” value [4, 15] was 0. The “Plant response rating, Rice” value ([4]; 250 g ai/ha, scale 0 to 100) was 0, the “Plant response rating, Sedge, Umbrella” value [5, 13] was 0 and the “Plant response rating, Sedge, Umbrella” value [5, 14] was 0. The “Plant response rating, Sedge, Umbrella” value [5, 15] was 0, the “Plant response rating, Sedge, Umbrella” value ([5]; 250 g ai/ha, scale 0 to 100) was 0 and the “Plant response rating, Pigweed” value [6, 16] was 0. The “Plant response rating, Pigweed” value [6, 17] was 0, the “Pigweed plant response rating” value ([6]; 125 g ai/ha) was 0 and the “Plant response rating, Pigweed” value [6, 18] was 0. For the same compound, the “Plant response rating, Corn” value [7, 16] was 0, the “Plant response rating, Corn” value [7, 17] was 0 and the “Corn plant response rating” value ([7]; 125 g ai/ha) was 0. The “Plant response rating, Corn” value [7, 18] was 20, the “Plant response rating, Ducksalad” value [8, 13] was 0 and the “Plant response rating, Ducksalad” value [8, 14] was 0. For the same compound, the “Plant response rating, Ducksalad” value [8, 15] was 0, the “Plant response rating, Ducksalad” value ([8]; 250 g ai/ha, scale 0 to 100) was 0 and the “Plant response rating, Velvetleaf” value [9, 16] was 0. For the same compound, the “Plant response rating, Velvetleaf” value [9, 17] was 0, the “Velvetleaf plant response rating” value ([9]; 125 g ai/ha) was 0 and the “Plant response rating, Velvetleaf” value [9, 18] was 0. For the same compound, the “Plant response rating, Crabgrass, Large” value [10, 16] was 60, the “Plant response rating, Crabgrass, Large” value [10, 17] was 70 and the “Crabgrass, Large plant response rating” value ([10]; 125 g ai/ha) was 80. The “Plant response rating, Crabgrass, Large” value [10, 18] was 90, the “Plant response rating, Foxtail, Giant” value [11, 16] was 0 and the “Plant response rating, Foxtail, Giant” value [11, 17] was 50. For the same compound, the “Foxtail, Giant plant response rating” value ([11]; 125 g ai/ha) was 60, the “Plant response rating, Foxtail, Giant” value [11, 18] was 90 and the “Plant response rating, Barnyardgrass” value [12, 16] was 20. For the same compound, the “Plant response rating, Barnyardgrass” value [12, 17] was 60, the “Barnyardgrass plant response rating” value ([12]; 125 g ai/ha) was 20 and the “Plant response rating, Barnyardgrass” value [12, 19] was 60.
